Patent US20240139185A1, “COMPOUNDS THAT PARTICIPATE IN COOPERATIVE BINDING AND USES THEREOF” (Revolution Medicines, Inc., priority 2018, published 2024)

How the values were obtained:
cyclophilin A (CYPA) = cyclophilin A (CYPA) (Homo sapiens, UniProt P62937); test: CYPA-compound binary complex formation by SPR; conditions: read-out: CYPA Binding Affinity
Outline: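 CypA-Avi captured on a Biotin CAPture chip (4 μg/ml), reference flow cell subtracted. Compounds injected as 10-point 2-fold dilutions from 50 μM in HBS-P+ pH7.4 with 2% DMSO; 60 s association and 60 s dissociation, solvent-corrected. Affinity obtained by steady-state fitting.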

[1] = target: T1, BRAF-GTP-KRAS-G12C complex (Homo sapiens, UniProt P01116+P62937, G12C); test: KRAS-BRAF complex disruption through competition with CYPA-compound by TR-FRET; conditions: biochemical BRAF-KRAS G12C-GTP disruption assay EC50, with CYPA
T1 construct: 50 nM of His6-KRas G12C-GTP (1-169); 500 nM of tagless CypA (1-165)
Outline: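 His6-KRAS G12C-GTP (1-169, 50 nM) with tagless CypA (1-165, 500 nM) was incubated with compound for 3 h at room temperature in pH 7.3 Hepes/NaCl/MgCl2 buffer containing GST-BRAF RBD. Anti-His Eu (10 nM) and anti-GST APC (50 nM) were then added for 1.5 h, and the 665/615 nm TR-FRET ratio was read. EC50 from 4-parameter fit; for specificity, wild-type KRAS replaced G12C, and CypA was omitted to test presenter dependence.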

pERK in H358 cells = test: pERK inhibition in H358 cells; assay type: cell-based, human; conditions: 4 hours treatment, read-out: Cellular pERK inhibition
Outline: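 Human lung cancer H358 cells in RPMI/10% FBS were exposed to compound or DMSO for 4 h. Fixed and permeabilized cells were stained overnight at 4 C with anti-phospho-ERK1/2 (Thr202/Tyr204). Near-infrared imaging read the pERK signal at 800 nm, with DRAQ5 at 700 nm.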

SMILES | Kd (cyclophilin A (CYPA)) | EC50 [1] | IC50 (pERK in H358 cells)
CC(C)[C@@H](C(=O)N[C@H]1Cc2cc(O)cc(c2)-c2ccc3c(-c4ccccc4Cl)cn(c3c2)CC(C)(C)COC(=O)[C@@H]2CCCN(N2)C1=O)N(C)C(=O)C1CN(C(=O)CCl)C1 [Compound 241] | > 15 µM | ≤ 0.5 µM | 1 to 10 µM
CC(C)[C@@H](C(=O)N[C@H]1Cc2cc(O)cc(c2)-c2ccc3c(-c4ccccc4F)cn(c3c2)CC(C)(C)COC(=O)[C@@H]2CCCN(N2)C1=O)N(C)C(=O)C1CN(C(=O)CCl)C1 [Compound 242] | > 15 µM | ≤ 0.5 µM | 1 to 10 µM
CC(C)C1COC(=O)[C@@H]2CCCN(N2)C(=O)[C@@H](NC(=O)[C@H](C(C)C)N(C)C(=O)C2CN(C(=O)CCl)C2)Cc2cc(O)cc(c2)-c2ccc3c(C(C)(C)C#N)cn(c3c2)C1 (stereo partly drawn) [Compound 246] | 5 to 15 µM | ≤ 0.5 µM | 1 to 10 µM
CC(C)[C@@H](C(=O)N[C@H]1Cc2cc(O)cc(c2)-c2ccc3c(CCC#N)cn(c3c2)CC(C)(C)COC(=O)[C@@H]2CCCN(N2)C1=O)N(C)C(=O)C1CN(C(=O)CCl)C1 [Compound 256] | ≤ 5 µM | ≤ 0.5 µM | ≤ 1 µM
CC(C)[C@@H](C(=O)N[C@H]1Cc2cc(O)cc(c2)-c2ccc3c(-c4ccn(C)n4)cn(c3c2)CC(C)(C)COC(=O)[C@@H]2CCCN(N2)C1=O)N(C)C(=O)C1CN(C(=O)CCl)C1 [Compound 257] | 5 to 15 µM | ≤ 0.5 µM | 1 to 10 µM
CC#CC(=O)N1CC2(CCN([C@H](C(=O)N[C@H]3Cc4cc(O)cc(c4)-c4ccc5c(C(C)(C)C#N)cn(c5c4)CC(C)(C)COC(=O)[C@@H]4CCCN(N4)C3=O)C(C)C)C2=O)C1 [Compound 259] | 5 to 15 µM | 0.5 to 5 µM | > 10 µM
CC(C)[C@@H](C(=O)N[C@H]1Cc2cc(O)nc(c2)-c2ccc3c(C(C)(C)C#N)cn(c3c2)CC(C)(C)COC(=O)[C@@H]2CCCN(N2)C1=O)N(C)C(=O)C1CN(C(=O)CCl)C1 [Compound 339] | ≤ 5 µM | > 5 µM | > 10 µM
CC#CC(=O)N1CCN(C(=O)N(C)[C@H](C(=O)N[C@H]2Cc3cc(O)cc(c3)-c3ccc4c(C(C)(C)C#N)cn(c4c3)CC(C)(C)COC(=O)[C@@H]3CCCN(N3)C2=O)C(C)C)CC1 [Compound 343] | ≤ 5 µM | 0.5 to 5 µM | 1 to 10 µM
C=CC(=O)N1CCN(C(=O)N(C)[C@H](C(=O)N[C@H]2Cc3cc(O)cc(c3)-c3ccc4c(C(C)(C)C#N)cn(c4c3)CC(C)(C)COC(=O)[C@@H]3CCCN(N3)C2=O)C(C)C)CC1 [Compound 344] | 5 to 15 µM | 0.5 to 5 µM | 1 to 10 µM
C=CC(=O)N1CCC(C(=O)N(C)C(C(=O)NC2Cc3cc(O)cc(c3)-c3ccc4c(c3)N(CC(C)COC(=O)C3CCCN(N3)C2=O)CC4(C)C(C)=O)C(C)C)C1 (stereo not drawn) [Compound 391] | ≤ 5 µM | > 5 µM | > 10 µM
C=CC(=O)N1CCC(C(=O)N(C)C(C(=O)NC2Cc3cc(O)cc(c3)-c3ccc4c(c3)c(cn4-c3cc(COC)ccc3C#N)CC(C)(C)COC(=O)C3CCCN(N3)C2=O)C(C)C)C1 (stereo not drawn) [Compound 393] | 5 to 15 µM | 0.5 to 5 µM | 1 to 10 µM
C=CC(=O)N1CCC(C(=O)N(C)C(C(=O)NC2Cc3cc(O)cc(c3)-c3ccc4c(-c5c(COC)noc5C)cn(c4c3)CC(C)(C)COC(=O)C3CCCN(N3)C2=O)C(C)C)C1 (stereo not drawn) [Compound 394] | 5 to 15 µM | 0.5 to 5 µM | > 10 µM
C=CC(=O)N1CCC(C(=O)N(C)C(C(=O)NC2Cc3cc(O)cc(c3)-c3ccc4c(c3)c(cn4C(C)(C)C#N)CC(C)(C)COC(=O)C3CCCN(N3)C2=O)C2CCCC2)C1 (stereo not drawn) [Compound 395] | ≤ 5 µM | 0.5 to 5 µM | ≤ 1 µM
C=CC(=O)N1CCC(C(=O)N(C)C(C(=O)NC2Cc3cc(O)cc(c3)-c3ccc4c(c3)c(c(C#N)n4CC)CC(C)(C)COC(=O)C3CCCN(N3)C2=O)C2CCCC2)C1 (stereo not drawn) [Compound 397] | ≤ 5 µM | ≤ 0.5 µM | ≤ 1 µM
C=CC(=O)N1CCC(C(=O)N(C)C(C(=O)NC2Cc3cc(O)cc(c3)-c3ccc4c(c3)N(CC(C)(C)COC(=O)C3CCCN(N3)C2=O)CC4(C)COC)C2CCCC2)C1 (stereo not drawn) [Compound 398] | ≤ 5 µM | 0.5 to 5 µM | ≤ 1 µM
C=CC(=O)N1CCC(C(=O)N(C)C(C(=O)NC2Cc3cc(O)cc(c3)-c3ccc4c(c3)c(c(C#N)n4CCOC)CC(C)(C)COC(=O)C3CCCN(N3)C2=O)C(C)C)C1 (stereo not drawn) [Compound 400] | 5 to 15 µM | ≤ 0.5 µM | 1 to 10 µM
C=CC(=O)N1CCC(C(=O)N(C)C(C(=O)NC2Cc3cc(O)cc(c3)-c3ccc4c(c3)N(CC(C)(C)COC(=O)C3CCCN(N3)C2=O)CC4(C=CC#N)COC)C(C)C)C1 (stereo not drawn) [Compound 404] | > 15 µM | ≤ 0.5 µM | 1 to 10 µM
C=CC(=O)N1CCC(C(=O)N(C)C(C(=O)NC2Cc3cc(O)cc(c3)-c3ccc4c(c3)c(cn4C(C#N)(CC)CC)CC(C)(C)COC(=O)C3CCCN(N3)C2=O)C(C)CC)C1 (stereo not drawn) [Compound 405] | 5 to 15 µM | 0.5 to 5 µM | ≤ 1 µM
